From ChEMBL document CHEMBL1201862, “PubChem BioAssay data set” (2004)
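Dose response: 5 concentrations. Exposure: 48 h. Format: 96-well plates. Endpoint: linear interpolation; highest concentration if not reached. The concentration for 50% growth inhibition is given as GI50.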 Calls of active or inactive are those of the source. No stated cut-off is given here; in the data, active = GI50 up to about 1.1 µM and inactive = higher.

Columns and labels:
Assay in all cases: growth of human tumour cells (NCI), 48 h
SW-620 = system: SW-620
NCI-H460 = system: NCI-H460
SN12C = system: SN12C
UACC-257 = system: UACC-257
OVCAR-5 = system: OVCAR-5
RPMI-8226 = system: RPMI-8226
SNB-75 = system: SNB-75
OVCAR-4 = system: OVCAR-4
MDA-MB-435 = system: MDA-MB-435
Hs-578T = system: Hs-578T
SNB-19 = system: SNB-19
K562 = system: K562
SF-268 = system: SF-268
UACC-62 = system: UACC-62
U-251 = system: U-251
MCF7 = system: MCF7
HT-29 = system: HT-29
MDA-N = system: MDA-N
COLO 205 = system: COLO 205

SMILES	GI50 (SW-620)	GI50 (NCI-H460)	GI50 (SN12C)	GI50 (UACC-257)	GI50 (OVCAR-5)	GI50 (RPMI-8226)	GI50 (SNB-75)	GI50 (OVCAR-4)	GI50 (MDA-MB-435)	GI50 (Hs-578T)	GI50 (SNB-19)	GI50 (K562)	GI50 (SF-268)	GI50 (UACC-62)	GI50 (U-251)	GI50 (MCF7)	GI50 (HT-29)	GI50 (MDA-N)	GI50 (COLO 205)
O=C(OCC12CC3CC(CC(C3)C1)C2)c1ccc(NCc2cc(O)ccc2O)cc1	3.02 µM (inactive)	2.57 µM (inactive)	2.57 µM (inactive)	1.64 µM (inactive)	2.1 µM (inactive)	0.199 µM (active)	1.81 µM (inactive)	1.05 µM (active)	1.99 µM (inactive)	2.14 µM (inactive)	4.33 µM (inactive)	0.431 µM (active)	3.27 µM (inactive)	1.6 µM (inactive)	1.02 µM (active)	1.08 µM (active)	1.47 µM (inactive)	2.81 µM (inactive)	0.681 µM (active)
CCCN1C(=O)CCC2=C1CCc1c2ccc(Cl)c1Cl	48.4 µM (inactive)	43.6 µM (inactive)	28.2 µM (inactive)	39.9 µM (inactive)	8.41 µM (inactive)	28.8 µM (inactive)	15.2 µM (inactive)	26.2 µM (inactive)	57.9 µM (inactive)	0.0472 µM (active)	26.8 µM (inactive)	35 µM (inactive)	27 µM (inactive)	0.492 µM (active)	22.9 µM (inactive)	42.1 µM (inactive)	34.8 µM (inactive)	46 µM (inactive)	51.9 µM (inactive)
Cc1cccc(C(=O)O)c1CC1NCCC2c3ccccc3NC12 (stereo not given)	> 100 µM (inactive)	> 100 µM (inactive)	> 100 µM (inactive)	> 100 µM (inactive)	> 100 µM (inactive)	> 100 µM (inactive)	> 100 µM (inactive)	> 100 µM (inactive)	> 100 µM (inactive)	> 100 µM (inactive)	> 100 µM (inactive)	> 100 µM (inactive)	> 100 µM (inactive)	> 100 µM (inactive)	> 100 µM (inactive)	> 100 µM (inactive)	> 100 µM (inactive)	> 100 µM (inactive)	> 100 µM (inactive)
COCCCNC(=O)C1=C(C)NC(C)=C(C(=O)NCCCOC)C1	> 100 µM (inactive)	> 100 µM (inactive)	> 100 µM (inactive)	> 100 µM (inactive)	> 100 µM (inactive)	> 100 µM (inactive)	21 µM (inactive)	> 100 µM (inactive)	> 100 µM (inactive)	86.5 µM (inactive)	> 100 µM (inactive)	46 µM (inactive)	> 100 µM (inactive)	> 100 µM (inactive)	> 100 µM (inactive)	> 100 µM (inactive)	> 100 µM (inactive)	> 100 µM (inactive)	> 100 µM (inactive)
Cc1c(/N=N/c2ccc(Cl)cc2)c(C)n(C2OC(CO)C(O)C(O)C2O)c(=S)c1C#N (stereo not given)	> 100 µM (inactive)	25.8 µM (inactive)	15.5 µM (inactive)	24.2 µM (inactive)	30.5 µM (inactive)	16.4 µM (inactive)	28 µM (inactive)	16.5 µM (inactive)	20.2 µM (inactive)	10.7 µM (inactive)	> 100 µM (inactive)	16.7 µM (inactive)	16 µM (inactive)	3.25 µM (inactive)	18.2 µM (inactive)	28.6 µM (inactive)	32.7 µM (inactive)	21.6 µM (inactive)	19.3 µM (inactive)
